Test results published in US20230278972A1, “SUBSTITUTED HALOALKYL SULFONANILIDE HERBICIDES” (FMC Corporation, priority 2020, published 2023).

What was measured:
Assay type in all cases: in vivo
[1] = test system: Foxtail, Giant (giant foxtail, Setaria faberi); experiment: Test A postemergence, Foxtail, Giant; details: Postemergence, 0 to 100 scale (0 no effect, 100 complete control)
Procedure, shortened: (§1)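 Test chemicals, formulated in a non-phytotoxic solvent mixture with surfactant, were sprayed postemergence on plants 2 to 10 cm tall at the one- to two-leaf stage. Preemergence treatment was a directed soil spray onto freshly seeded pots. Both used a loam soil and sand blend.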

[2] = test system: blackgrass (Alopecurus myosuroides); experiment: Test A postemergence, blackgrass; details: Postemergence, 0 to 100 scale (0 no effect, 100 complete control)
Procedure, shortened: as §1

corn (Zea mays) = experiment: Test A postemergence, corn; details: Postemergence, 0 to 100 scale (0 no effect, 100 complete control)
Procedure, shortened: as §1

[3] = test system: Ryegrass, Italian (Italian ryegrass, Lolium multiflorum); experiment: Test A postemergence, Ryegrass, Italian; details: Postemergence, 0 to 100 scale (0 no effect, 100 complete control)
Procedure, shortened: as §1

kochia (Bassia scoparia) [4] = experiment: Test A postemergence, kochia; details: Postemergence, 0 to 100 scale (0 no effect, 100 complete control)
Procedure, shortened: as §1

kochia (Bassia scoparia) [5] = experiment: Test A preemergence, kochia; details: Preemergence; for Plant response rating, Kochia: 125 g ai/ha, visual injury, 0 to 100 scale (0 no effect, 100 complete control), approx. 10 days; for Kochia plant response rating: 500 g ai/ha, visual injury on 0 to 100 scale (0 no effect, 100 complete control), approximately 10 days
Procedure, shortened: as §1

[6] = test system: ragweed (common ragweed, Ambrosia artemisiifolia); experiment: Test A postemergence, ragweed; details: Postemergence, 0 to 100 scale (0 no effect, 100 complete control)
Procedure, shortened: as §1

[7] = test system: Ryegrass, Italian (Italian ryegrass, Lolium multiflorum); experiment: Test A preemergence, Ryegrass, Italian; details: Preemergence; for Plant response rating, Ryegrass, Italian: 125 g ai/ha, visual injury, 0 to 100 scale (0 no effect, 100 complete control), approx. 10 days; for Ryegrass, Italian plant response rating: 500 g ai/ha, visual injury on 0 to 100 scale (0 no effect, 100 complete control), approximately 10 days
Procedure, shortened: as §1

[8] = test system: galium (catchweed bedstraw, Galium aparine); experiment: Test A postemergence, galium; details: Postemergence, 0 to 100 scale (0 no effect, 100 complete control)
Procedure, shortened: (§2)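 Postemergence ratings come from foliar sprays onto one- to two-leaf plants of 2 to 10 cm grown in loam/sand; preemergence ratings come from a directed spray onto the soil of newly seeded pots. Formulation was a surfactant-containing non-phytotoxic solvent blend.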

[9] = test system: barnyardgrass (Echinochloa crus-galli); experiment: Test A postemergence, barnyardgrass; details: Postemergence, 0 to 100 scale (0 no effect, 100 complete control)
Procedure, shortened: as §2

[10] = test system: pigweed (Amaranthus retroflexus); experiment: Test A postemergence, pigweed; details: Postemergence, 0 to 100 scale (0 no effect, 100 complete control)
Procedure, shortened: as §1

[11] = test system: ragweed (common ragweed, Ambrosia artemisiifolia); experiment: Test A preemergence, ragweed; details: Preemergence; for Plant response rating, Ragweed: 125 g ai/ha, visual injury, 0 to 100 scale (0 no effect, 100 complete control), approx. 10 days; for Ragweed plant response rating: 500 g ai/ha, visual injury on 0 to 100 scale (0 no effect, 100 complete control), approximately 10 days
Procedure, shortened: as §1

[12] = test system: wheat (Triticum aestivum); experiment: Test A postemergence, wheat; details: Postemergence, 0 to 100 scale (0 no effect, 100 complete control)
Procedure, shortened: as §2

[13] = test system: barnyardgrass (Echinochloa crus-galli); experiment: Test A preemergence, barnyardgrass; details: Preemergence; for Plant response rating, Barnyardgrass: 125 g ai/ha, visual injury, 0 to 100 scale (0 no effect, 100 complete control), approx. 10 days; for Barnyardgrass plant response rating: 500 g ai/ha, visual injury on 0 to 100 scale (0 no effect, 100 complete control), approximately 10 days
Procedure, shortened: as §1

[14] = test system: Foxtail, Giant (giant foxtail, Setaria faberi); experiment: Test A preemergence, Foxtail, Giant; details: Preemergence; for Plant response rating, Foxtail, Giant: 125 g ai/ha, visual injury, 0 to 100 scale (0 no effect, 100 complete control), approx. 10 days; for Foxtail, Giant plant response rating: 500 g ai/ha, visual injury on 0 to 100 scale (0 no effect, 100 complete control), approximately 10 days
Procedure, shortened: as §1

[15] = 500 g ai/ha, visual injury approx. 10 days

| Structure (SMILES) | Plant response rating, Foxtail, Giant ([1]; 125 g ai/ha) | Plant response rating, Foxtail, Giant [1, 15] | Plant response rating, Blackgrass ([2]; 125 g ai/ha) | Plant response rating, Blackgrass [2, 15] | Plant response rating, Corn (corn (Zea mays); 125 g ai/ha) | Plant response rating, Corn (corn (Zea mays); [15]) | Plant response rating, Ryegrass, Italian ([3]; 125 g ai/ha) | Plant response rating, Ryegrass, Italian [3, 15] | Plant response rating, Kochia (kochia (Bassia scoparia) [4]; 125 g ai/ha) | Plant response rating, Kochia (kochia (Bassia scoparia) [4]; [15]) | Plant response rating, Kochia (kochia (Bassia scoparia) [5]) | Kochia plant response rating (kochia (Bassia scoparia) [5]) | Plant response rating, Ragweed ([6]; 125 g ai/ha) | Plant response rating, Ragweed [6, 15] | Plant response rating, Ryegrass, Italian [7] | Ryegrass, Italian plant response rating [7] | Plant response rating, Galium ([8]; 125 g ai/ha) | Plant response rating, Galium [8, 15] | Plant response rating, Barnyardgrass ([9]; 125 g ai/ha) | Plant response rating, Barnyardgrass [9, 15] | also measured |
| --- | --- | --- | --- | --- | --- | --- | --- | --- | --- | --- | --- | --- | --- | --- | --- | --- | --- | --- | --- | --- | --- |
| CC(=O)N(c1cc(N2CCC3(CCCCC3)C2=O)c(C)cc1C)S(=O)(=O)C(F)(F)F [Compound 265] | 0 | 20 | 30 | 20 | 20 | 60 | 20 | 70 | 40 | 50 | 90 | 90 | 60 | 80 | 90 | 100 | 90 | 90 | 60 | 80 | Plant response rating, Pigweed ([10]; 125 g ai/ha): 60; Plant response rating, Pigweed [10, 15]: 90; Plant response rating, Ragweed [11]: 90; Ragweed plant response rating [11]: 90; Plant response rating, Wheat ([12]; 125 g ai/ha): 30; Plant response rating, Wheat [12, 15]: 60; Plant response rating, Barnyardgrass [13]: 90; Barnyardgrass plant response rating [13]: 100; Plant response rating, Foxtail, Giant [14]: 100; Foxtail, Giant plant response rating [14]: 100 |
| COC(=O)N(c1cc(N2CCC3(CCCCC3)C2=O)c(C)cc1C)S(=O)(=O)C(F)(F)F [Compound 266] | 0 | 0 | 30 | 0 | 0 | 0 | 0 | 0 | 0 | 10 | 0 | 0 | 0 | 10 | 0 | 0 | 30 | 90 | 0 | 20 | Plant response rating, Pigweed ([10]; 125 g ai/ha): 0; Plant response rating, Pigweed [10, 15]: 0; Plant response rating, Ragweed [11]: 0; Ragweed plant response rating [11]: 0; Plant response rating, Wheat ([12]; 125 g ai/ha): 0; Plant response rating, Wheat [12, 15]: 0; Plant response rating, Barnyardgrass [13]: 0; Barnyardgrass plant response rating [13]: 40; Plant response rating, Foxtail, Giant [14]: 0; Foxtail, Giant plant response rating [14]: 20 |
| Cc1cc(C)c(N(S(=O)(=O)C(F)(F)F)S(=O)(=O)C(F)(F)F)cc1N1CC2(CCCCC2)OC1=O [Compound 269] | 0 | 0 | 20 | 20 | 0 | 10 | 0 | 20 | 30 | 50 | 70 | 100 | 40 | 90 | 80 | 100 | 70 | 90 | 0 | 20 | Plant response rating, Pigweed ([10]; 125 g ai/ha): 30; Plant response rating, Pigweed [10, 15]: 70; Plant response rating, Ragweed [11]: 80; Ragweed plant response rating [11]: 90; Plant response rating, Wheat ([12]; 125 g ai/ha): 0; Plant response rating, Wheat [12, 15]: 20; Plant response rating, Barnyardgrass [13]: 100; Barnyardgrass plant response rating [13]: 100; Plant response rating, Foxtail, Giant [14]: 100; Foxtail, Giant plant response rating [14]: 100 |
